Target: p53 binding protein (Homo sapiens, UniProt Q9H4C2)
Assay: HDM2 Binding Assay
Text: Binding assay using 1,4-benzodiazepine-2,5-dione (BZD) scaffold and HDM2-p53 protein.

p53 binding protein, sequence (Q9H4C2 whole entry): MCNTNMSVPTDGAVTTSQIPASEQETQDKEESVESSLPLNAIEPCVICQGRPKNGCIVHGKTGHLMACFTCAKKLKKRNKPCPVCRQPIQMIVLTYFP

Row | Structure (SMILES) | IC50 [µM]
1 | O=C(O)C(c1ccccc1)N1C(=O)c2ccccc2NC(=O)C1c1ccccc1 (stereo not given) [BZD Scaffold, 1] | > 125
2 | CC(C)c1ccc2c(c1)C(=O)N(C(C(=O)O)c1ccc(Cl)cc1)C(c1ccc(Cl)cc1)C(=O)N2 (stereo not given) [BZD Scaffold, 2] | 1
3 | O=C(O)C(c1ccccc1)N1C(=O)c2cc(I)ccc2NC(=O)C1c1ccccc1 (stereo not given) [BZD Scaffold, 3] | 29

More lines, now with the values ahead:

Row | IC50 [µM] | Structure (SMILES)
4 | 3.8 | O=C(O)C(c1ccccc1)N1C(=O)c2cc(I)ccc2NC(=O)C1c1ccc(C(F)(F)F)cc1 (stereo not given) [BZD Scaffold, 4]
5 | 1.7 | O=C(O)C(c1ccccc1)N1C(=O)c2cc(I)ccc2NC(=O)C1c1ccc(Cl)cc1 (stereo not given) [BZD Scaffold, 5]

From BindingDB's records for doi:10.1111/j.1747-0285.2006.00365.x (Johnson & Johnson Pharmaceutical Research & Development, 2006)
